Experimental data from US20230263822A1, “MODULATION OF FACTOR 11 EXPRESSION” (Ionis Pharmaceuticals, Inc., priority 2008, published 2023).
Strand notation (5' to 3'): a small letter for the sugar, then the base; units joined by * are phosphorothioate-linked, units joined directly phosphodiester-linked; [ ] holds rarer units or linkages, { } end groups; capitals alone tell only the bases. e = 2'-O-(2-methoxyethyl) (MOE); [5mC] = 5-methylcytosine; d = 2'-deoxy (DNA)

Legend:
Factor 11 activity = assay: Factor 11 protein activity, F11 assay based on clotting time (Example 45); format: in vivo, cynomolgus monkeys
Description: (§1) Groups, each consisting of two male and three female monkeys, were injected subcutaneously with ISIS 416838, ISIS 416850, ISIS 416858, ISIS 416864, or ISIS 417002 in escalating doses. Antisense oligonucleotide was administered to the monkeys at 5 mg/kg three times per a week for week 1; 5 mg/kg twice per week for weeks 2 and 3; 10 mg/kg three times per week for week 4; 10 mg/kg twice per week for weeks 5 and 6; 25 mg/kg three times per week for week 7; and 25 mg/kg twice per week for weeks 8, 9, 10, 11, and 12. One control group, consisting of two male and three female monkeys, was injected subcutaneously with PBS according to the same dosing regimen. An additional experimental group, consisting of two male and three female monkeys, was injected subcutaneously with ISIS 416850 in a chronic, lower dose regimen. Antisense oligonucleotide was administered to the monkeys at 5 mg/kg three times per week for week 1; 5 mg/kg twice per week for week 2 and 3; 10 mg/kg three times per week for week 4; and 10 mg/kg twice per week for weeks 5 to 12. Body weights were measured weekly. Blood samples were collected 14 days and 5 days before the start of treatment and subsequently once per week for Factor 11 protein activity analysis in plasma, fibrinogen measurement, PT and aPTT measurements, bleeding times, and measurement of various hematologic factors. On day 85, the monkeys were euthanized by exsanguination while under deep anesthesia, and organs harvested for further analysis.
Blood samples were collected at various time points and Factor 11 proenzyme was measured using a F11 assay based on clotting time. Clotting times were determined in duplicate with a ST4 semi-automated coagulation instrument (Diagnostica Stago, NJ). Thirty μl of citrated sample plasma diluted 1/20 in HEPES-NaCl buffer with BSA was incubated with 30 μl aPTT reagent (Automated aPTT, Organon Technika, NC) and 30 μl of citrated plasma deficient of Factor 11 (George King Bio-Medical Inc.) at 37° C. for 5 min, followed by the addition of 30 μl of 25 mM CaCl2) to initiate clotting. Results were interpolated on a standard curve of serially diluted citrated control plasma.
Results are presented in Table 118 as percent inhibition of Factor 11 activity, relative to PBS control. The ISIS oligonucleotide, ISIS 416850, given with the chronic dose regimen is distinguished from the other oligonucleotides with an asterisk (*).

[1] = Tolerability in CD1 mice: kidney function (Example 43); format: in vivo; settings: 50 mg/kg s.c. twice per week for 6 weeks, plasma
[2] = test system: IL-1β, IL-6, IFN-γ, TNF-α, IL-8, MIP-1α, MCP-1, MIP-1β, RANTES; assay: Cytokine and chemokine assays in cynomolgus monkeys (Example 45); format: in vivo; settings: escalating dose regimen
Description: as §1
Blood samples obtained from the monkey groups treated with PBS, ISIS 416850 and ISIS 416858 administered in the escalating dose regimen were sent to Pierce Biotechnology (Woburn, Mass.) for measurement of chemokine and cytokine levels. Levels of IL-1β, IL-6, IFN-γ, and TNF-α were measured using the respective primate antibodies and levels of IL-8, MIP-1α, MCP-1, MIP-1β and RANTES were measured using the respective cross-reacting human antibodies. Measurements were taken 14 days before the start of treatment and on day 85, when the monkeys were euthanized.

[3] = day 15, escalating dose regimen
[4] = day 22, escalating dose regimen
[5] = day 29, escalating dose regimen
[6] = day 36, escalating dose regimen
[7] = day 43, escalating dose regimen
[8] = day 50, escalating dose regimen
[9] = day 57, escalating dose regimen
[10] = day 64, escalating dose regimen
[11] = day 71, escalating dose regimen
[12] = day 78, escalating dose regimen
[13] = day 85, escalating dose regimen
[14] = day −5, escalating dose regimen
[15] = day −14, escalating dose regimen
[16] = day −14 (before start of treatment)

Substance: ISIS 416838: MOE gapmer, nucleobases 1018 to 1042 of SEQ ID NO: 1 (Table 6) (antisense GCAACCGGGATGATGAGTGC; MOE gapmer, wing and gap sizes not given here)
- percent inhibition of Factor 11 activity, relative to PBS control (Factor 11 activity; day 8, escalating dose regimen): 3%
- percent inhibition of Factor 11 activity, relative to PBS control (Factor 11 activity; [3]): 4%
- percent inhibition of Factor 11 activity, relative to PBS control (Factor 11 activity; [4]): 5%
- percent inhibition of Factor 11 activity, relative to PBS control (Factor 11 activity; [5]): 8%
- percent inhibition of Factor 11 activity, relative to PBS control (Factor 11 activity; [6]): 11%
- percent inhibition of Factor 11 activity, relative to PBS control (Factor 11 activity; [7]): 5%
- percent inhibition of Factor 11 activity, relative to PBS control (Factor 11 activity; [8]): 8%
- percent inhibition of Factor 11 activity, relative to PBS control (Factor 11 activity; [9]): 10%
- percent inhibition of Factor 11 activity, relative to PBS control (Factor 11 activity; [10]): 11%
- percent inhibition of Factor 11 activity, relative to PBS control (Factor 11 activity; [11]): 12%
- percent inhibition of Factor 11 activity, relative to PBS control (Factor 11 activity; [12]): 10%
- percent inhibition of Factor 11 activity, relative to PBS control (Factor 11 activity; [13]): 10%
- percent inhibition of Factor 11 activity, relative to PBS control (Factor 11 activity; [14]): 0%
- percent inhibition of Factor 11 activity, relative to PBS control (Factor 11 activity; [15]): 0%

Substance: ISIS 449708: 3-8-3, 4-8-4, 2-10-2, 3-10-3 or 4-10-4 MOE microwalk gapmer (Table 46) (antisense eA*e[5mC]*eA*dG*dT*dT*dT*d[5mC]*dT*dG*dG*e[5mC]*eA*eG)
- BUN [1]: 28 mg/dL
- Creatinine [1]: 0.2 mg/dL

Substance: ISIS 416850: MOE gapmer, nucleobases 1275 to 1318 of SEQ ID NO: 1 (Table 8) (antisense TGCACAGTTTCTGGCAGGCC; MOE gapmer, wing and gap sizes not given here)
- percent inhibition of Factor 11 activity, relative to PBS control (Factor 11 activity; day 8, chronic dose regimen (*)): 6%
- percent inhibition of Factor 11 activity, relative to PBS control (Factor 11 activity; day 8, escalating dose regimen): 8%
- percent inhibition of Factor 11 activity, relative to PBS control (Factor 11 activity; day 15, chronic dose regimen (*)): 13%
- percent inhibition of Factor 11 activity, relative to PBS control (Factor 11 activity; [3]): 4%
- percent inhibition of Factor 11 activity, relative to PBS control (Factor 11 activity; day 22, chronic dose regimen (*)): 12%
- percent inhibition of Factor 11 activity, relative to PBS control (Factor 11 activity; [4]): 11%
- percent inhibition of Factor 11 activity, relative to PBS control (Factor 11 activity; day 29, chronic dose regimen (*)): 20%
- percent inhibition of Factor 11 activity, relative to PBS control (Factor 11 activity; [5]): 15%
- percent inhibition of Factor 11 activity, relative to PBS control (Factor 11 activity; day 36, chronic dose regimen (*)): 24%
- percent inhibition of Factor 11 activity, relative to PBS control (Factor 11 activity; [6]): 17%
- percent inhibition of Factor 11 activity, relative to PBS control (Factor 11 activity; day 43, chronic dose regimen (*)): 24%
- percent inhibition of Factor 11 activity, relative to PBS control (Factor 11 activity; [7]): 23%
- percent inhibition of Factor 11 activity, relative to PBS control (Factor 11 activity; day 50, chronic dose regimen (*)): 30%
- percent inhibition of Factor 11 activity, relative to PBS control (Factor 11 activity; [8]): 42%
- percent inhibition of Factor 11 activity, relative to PBS control (Factor 11 activity; [9]): 49%
- percent inhibition of Factor 11 activity, relative to PBS control (Factor 11 activity; [10]): 55%
- percent inhibition of Factor 11 activity, relative to PBS control (Factor 11 activity; [11]): 57%
- percent inhibition of Factor 11 activity, relative to PBS control (Factor 11 activity; [12]): 63%
- percent inhibition of Factor 11 activity, relative to PBS control (Factor 11 activity; [13]): 64%
- percent inhibition of Factor 11 activity, relative to PBS control (Factor 11 activity; day −5, chronic dose regimen (*)): 1%
- percent inhibition of Factor 11 activity, relative to PBS control (Factor 11 activity; [14]): 0%
- percent inhibition of Factor 11 activity, relative to PBS control (Factor 11 activity; day −14, chronic dose regimen (*)): 0%
- percent inhibition of Factor 11 activity, relative to PBS control (Factor 11 activity; [15]): 0%
- IFN-γ level ([2]; day 85): 18 pg/mL
- IL-1β level ([2]; day 85): 13 pg/mL
- IL-6 level ([2]; day 85): 17 pg/mL
- IL-8 level ([2]; day 85): 172 pg/mL
- MCP-1 level ([2]; day 85): 2330 pg/mL
- MIP-1α level ([2]; day 85): 41 pg/mL
- MIP-1β level ([2]; day 85): 216 pg/mL
- RANTES level ([2]; day 85): 83981 pg/mL
- TNF-α level ([2]; day 85): 27 pg/mL
- IFN-γ level [2, 16]: 126 pg/mL
- IL-1β level [2, 16]: 3 pg/mL
- IL-6 level [2, 16]: 30 pg/mL
- IL-8 level [2, 16]: 1659 pg/mL
- MCP-1 level [2, 16]: 1384 pg/mL
- MIP-1α level [2, 16]: 28 pg/mL
- MIP-1β level [2, 16]: 137 pg/mL
- RANTES level [2, 16]: 75335 pg/mL
- TNF-α level [2, 16]: 14 pg/mL

Substance: ISIS 416858: MOE gapmer, nucleobases 1275 to 1318 of SEQ ID NO: 1 (Table 8) (antisense ACGGCATTGGTGCACAGTTT; MOE gapmer, wing and gap sizes not given here)
- percent inhibition of Factor 11 activity, relative to PBS control (Factor 11 activity; day 8, escalating dose regimen): 6%
- percent inhibition of Factor 11 activity, relative to PBS control (Factor 11 activity; [3]): 16%
- percent inhibition of Factor 11 activity, relative to PBS control (Factor 11 activity; [4]): 23%
- percent inhibition of Factor 11 activity, relative to PBS control (Factor 11 activity; [5]): 28%
- percent inhibition of Factor 11 activity, relative to PBS control (Factor 11 activity; [6]): 35%
- percent inhibition of Factor 11 activity, relative to PBS control (Factor 11 activity; [7]): 39%
- percent inhibition of Factor 11 activity, relative to PBS control (Factor 11 activity; [8]): 49%
- percent inhibition of Factor 11 activity, relative to PBS control (Factor 11 activity; [9]): 60%
- percent inhibition of Factor 11 activity, relative to PBS control (Factor 11 activity; [10]): 68%
- percent inhibition of Factor 11 activity, relative to PBS control (Factor 11 activity; [11]): 71%
- percent inhibition of Factor 11 activity, relative to PBS control (Factor 11 activity; [12]): 73%
- percent inhibition of Factor 11 activity, relative to PBS control (Factor 11 activity; [13]): 78%
- percent inhibition of Factor 11 activity, relative to PBS control (Factor 11 activity; [14]): 0%
- percent inhibition of Factor 11 activity, relative to PBS control (Factor 11 activity; [15]): 0%
- IFN-γ level ([2]; day 85): 18 pg/mL
- IL-1β level ([2]; day 85): 5 pg/mL
- IL-6 level ([2]; day 85): 25 pg/mL
- IL-8 level ([2]; day 85): 303 pg/mL
- MCP-1 level ([2]; day 85): 1752 pg/mL
- MIP-1α level ([2]; day 85): 41 pg/mL
- MIP-1β level ([2]; day 85): 221 pg/mL
- RANTES level ([2]; day 85): 125511 pg/mL
- TNF-α level ([2]; day 85): 45 pg/mL
- IFN-γ level [2, 16]: 60 pg/mL
- IL-1β level [2, 16]: 5 pg/mL
- IL-6 level [2, 16]: 9 pg/mL
- IL-8 level [2, 16]: 1552 pg/mL
- MCP-1 level [2, 16]: 1252 pg/mL
- MIP-1α level [2, 16]: 36 pg/mL
- MIP-1β level [2, 16]: 122 pg/mL
- RANTES level [2, 16]: 112253 pg/mL
- TNF-α level [2, 16]: 9 pg/mL

Substance: ISIS 416864: MOE gapmer, nucleobases 1275 to 1318 of SEQ ID NO: 1 (Table 8) (antisense GGCAGCGGACGGCATTGGTG; MOE gapmer, wing and gap sizes not given here)
- percent inhibition of Factor 11 activity, relative to PBS control (Factor 11 activity; day 8, escalating dose regimen): 7%
- percent inhibition of Factor 11 activity, relative to PBS control (Factor 11 activity; [3]): 9%
- percent inhibition of Factor 11 activity, relative to PBS control (Factor 11 activity; [4]): 7%
- percent inhibition of Factor 11 activity, relative to PBS control (Factor 11 activity; [5]): 10%
- percent inhibition of Factor 11 activity, relative to PBS control (Factor 11 activity; [6]): 9%
- percent inhibition of Factor 11 activity, relative to PBS control (Factor 11 activity; [7]): 9%
- percent inhibition of Factor 11 activity, relative to PBS control (Factor 11 activity; [8]): 10%
- percent inhibition of Factor 11 activity, relative to PBS control (Factor 11 activity; [9]): 7%
- percent inhibition of Factor 11 activity, relative to PBS control (Factor 11 activity; [10]): 5%
- percent inhibition of Factor 11 activity, relative to PBS control (Factor 11 activity; [11]): 10%
- percent inhibition of Factor 11 activity, relative to PBS control (Factor 11 activity; [12]): 9%
- percent inhibition of Factor 11 activity, relative to PBS control (Factor 11 activity; [13]): 8%
- percent inhibition of Factor 11 activity, relative to PBS control (Factor 11 activity; [14]): 5%
- percent inhibition of Factor 11 activity, relative to PBS control (Factor 11 activity; [15]): 0%
